Test results from patent publication CN114848615A, “和厚朴酚小分子自主装纳米粒及制备方法” (Tianjin University, priority 2022, dated 2022).

Test: SEM/TEM characterisation and appearance/distribution in water
Assay type: physicochemical
Conditions: in words

distribution/appearance in water: 形成浑浊的白色浆液
Structure (SMILES): C=CCc1ccc(O)c(-c2ccc(O)c(CC=C)c2)c1 [HK, 和厚朴酚]
